44 compounds from US6525059B1, “Substituted pyrazoles as p38 kinase inhibitors” (G. D. Searle & Company, priority 1998, dated 2003) can be followed below.

Like-named read-outs stand apart in the source and are kept apart here. Where only a bound is given, the exact number is not on record here.

The target in assay [1] is T1, human p38 kinase alpha (Homo sapiens, UniProt Q16539).
T1 construct: The coding region of the human p38a cDNA was obtained by PCR-amplification from RNA isolated from the human monocyte cell line THP.1; GST (N); made in house; host or cells: E. coli DH10B
T1 sequence (Q16539 whole entry): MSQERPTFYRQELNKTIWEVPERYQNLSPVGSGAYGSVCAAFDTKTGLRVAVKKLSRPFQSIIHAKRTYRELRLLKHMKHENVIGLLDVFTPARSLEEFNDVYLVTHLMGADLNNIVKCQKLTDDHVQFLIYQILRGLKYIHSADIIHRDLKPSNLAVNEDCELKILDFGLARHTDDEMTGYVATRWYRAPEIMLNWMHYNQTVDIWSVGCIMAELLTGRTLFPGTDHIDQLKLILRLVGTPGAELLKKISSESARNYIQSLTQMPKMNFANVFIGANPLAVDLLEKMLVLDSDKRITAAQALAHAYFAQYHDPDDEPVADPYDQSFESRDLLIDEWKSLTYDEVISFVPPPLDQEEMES
The assay can be described thus: p38 kinase in vitro assay, phosphorylation of biotinylated PHAS-I with gamma 32P-ATP. In kind it is biochemical. The note with it: for inhibition at 1 µM / inhibition at 10 µM: read-out: P38 alpha kinase % inhib @ conc. The procedure, abridged:
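MKK6-activated human p38α phosphorylates biotinylated PHAS-I with γ-32P-ATP in 25 mM HEPES pH 7.5, 10 mM Mg acetate, 50 μM unlabeled ATP, 1% DMSO, 30 °C for 1 h or overnight. Compounds at 100–0.001 μM (10-fold steps, triplicate); substrate captured on streptavidin filter plates and counted by scintillation.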

Assay [2] relates to TNF-α. The assay can be described thus: LPS stimulation of TNF production by U937 cells. To be noted: for inhibition at 1 µM / IC50: Homo sapiens; for inhibition at 1 µM: U-937, @ 1.0 uM, read-out: U937 Cell % inhib @ conc. It is filed as cell-based, human. The procedure, abridged:
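PMA-differentiated human U937 cells (20 ng/ml PMA, 24 h, then 24-48 h rest) at 2 million cells/ml, 0.1% DMSO final, stimulated with E. coli LPS (100 ng/ml final) for 4 h at 37° C. TNF-α in medium measured by ELISA; IC50 in μM.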

Setting [3] is: read-out: P38 alpha kinase IC50.
Setting [4] is: p38α in vitro, PHAS-I assay procedure, read-out: p38^1 IC50.
[5] abbreviates: U-937, LPS-stimulated U937 cells, read-out: U937 IC50.
[6] abbreviates: U-937, TNF production, LPS-stimulated human U937 cells, read-out: U937 Cell IC50.

As for `C[C@@H](NC(=O)c1ccc(F)cc1C(F)(F)F)c1[nH]nc(-c2ccc(F)cc2)c1-c1ccncc1` [Example B-0511], in assay [1] (setting [3]), the IC50 stood at 7 nM. Also, the inhibition at 1 µM in assay [2] came to 90%.
Consider `CCCCCCCC(=O)NCc1[nH]nc(-c2ccc(F)cc2)c1-c1ccncc1` [Example B-0064], for which the inhibition at 1 µM in assay [1] amounted to 90%; in assay [2] it was 4%.
On to `CCN(CC)CCn1cc(-c2ccnc(NCc3ccc(F)cc3)c2)c(-c2ccc(F)cc2)n1` [Example A-279, 4-[1-[2-(diethylamino)ethyl]-3-(4-fluorophenyl)-1H-pyrazol-4-yl]-N-[(4-fluorophenyl)methyl]-2-pyridinamine], for which the IC50 was determined as 5 nM in assay [1] (setting [4]) and 700 nM in assay [2] (setting [5]).
As to `CN(C)CCCNc1[nH]nc(-c2ccc(F)cc2)c1-c1ccncc1` [Example A-287, N′-[5-(4-fluorophenyl)-4-(4-pyridinyl)-1H-pyrazol-3-yl]-N,N-dimethyl-1,3-propanediamine], the IC50 in assay [1] (setting [4]) is 41 nM; in assay [2] (setting [5]), 270 nM.
As to `COc1ccccc1C(=O)NCc1[nH]nc(-c2ccc(F)cc2)c1-c1ccncc1` [Example B-0011], the IC50 in assay [1] (setting [3]) is 30 nM; in assay [2] (setting [6]), 4470 nM.
Take `O=C(NCc1[nH]nc(-c2ccc(F)cc2)c1-c1ccncc1)Nc1ccccc1OC(F)(F)F` [Example B-0185]: in assay [1] (@ 10.0 uM), the inhibition at 10 µM was 65%. In assay [2], the inhibition at 1 µM came out at 25%.
Take `C[C@@H](NC(=O)c1cccc(C(F)(F)F)c1)c1[nH]nc(-c2ccc(F)cc2)c1-c1ccncc1` [Example B-0495]: in assay [1] (setting [3]), the IC50 amounted to 120 nM. Besides, in assay [2], the inhibition at 1 µM came to 25%.
The matching figures for `CC(=O)Nc1ccc(S(=O)(=O)NCc2[nH]nc(-c3ccc(F)cc3)c2-c2ccncc2)cc1` [Example B-0223]: 200 nM and 1%.
For `O=C(NCc1[nH]nc(-c2ccc(F)cc2)c1-c1ccncc1)[C@H]1CCCN1` [Example B-0196], the figures for the IC50 in assay [1] (setting [3]) and in assay [2] (setting [6]) were 2240 nM and over 1000 nM, respectively.
Turning to `C#CCn1ncc(-c2ccncc2)c1-c1ccc(F)cc1` [Example A-295, 4-[5-(4-fluorophenyl)-1-(2-propynyl)-1H-pyrazol-4-yl]pyridine], the IC50 in assay [1] (setting [4]) was 7660 nM; in assay [2] (setting [5]), over 10000 nM.
As for `O=S(=O)(NCc1[nH]nc(-c2ccc(F)cc2)c1-c1ccncc1)c1ccc(F)cc1F` [Example B-0134], in assay [1], the inhibition at 1 µM was 60%. Moreover, in assay [2] (setting [6]), the IC50 worked out at 2170 nM.
Turning to `CCCNC(=O)N[C@H](C)c1[nH]nc(-c2ccc(F)cc2)c1-c1ccncc1` [Example B-0413], the IC50 in assay [1] (setting [3]) came to 180 nM. For the same compound, the inhibition at 1 µM in assay [2] was determined as 55%.
The matching figures for `CC(=O)O[C@@H](C)C(=O)N[C@H](C)c1[nH]nc(-c2ccc(F)cc2)c1-c1ccncc1` [Example B-0365]: 960 nM and 27%.
The matching figures for `O=C(NCc1[nH]nc(-c2ccc(F)cc2)c1-c1ccncc1)c1ccccn1` [Example B-0198]: 1200 nM and 2%.
With `Cc1ccccc1C(=O)N[C@H](C)c1[nH]nc(-c2ccc(F)cc2)c1-c1ccncc1` [Example B-0492], the IC50 in assay [1] (setting [3]) came to 69 nM. Further, the inhibition at 1 µM in assay [2] came to 42%.
In the case of `CCCCCCCCS(=O)(=O)NCc1[nH]nc(-c2ccc(F)cc2)c1-c1ccncc1` [Example B-0142], the inhibition at 1 µM in assay [1] was determined as 86%; in assay [2] it was 12%.
`C[C@@H](NC(=O)c1ccc(C(F)(F)F)cc1F)c1[nH]nc(-c2ccc(F)cc2)c1-c1ccncc1` [Example B-0508]: the IC50 in assay [1] (setting [3]) was 2000 nM. Also, the inhibition at 1 µM in assay [2] was 48%.
For the compound `CCOC(=O)C(CC(C)C)NC(=O)NCc1[nH]nc(-c2ccc(F)cc2)c1-c1ccncc1` (stereo not shown) [Example B-0189], the inhibition at 10 µM in assay [1] (@ 10.0 uM) turned out to be 42%. Also, the inhibition at 1 µM in assay [2] is 9%.
With `N#Cc1cccc(C(=O)NCc2[nH]nc(-c3ccc(F)cc3)c2-c2ccncc2)c1` [Example B-0274], the IC50 in assay [1] (setting [3]) amounted to 2680 nM. Also, the inhibition at 1 µM in assay [2] is 25%.
For the compound `Clc1ccc(-c2n[nH]cc2-c2ccncc2)cc1Cl` [Example A-297, 4-[3-(3,4-dichlorophenyl)-1H-pyrazol-4-yl]pyridine], the IC50 came out at 520 nM in assay [1] (setting [4]) and 170 nM in assay [2] (setting [5]).
Take `CCCNC(=O)NCc1[nH]nc(-c2ccc(F)cc2)c1-c1ccncc1` [Example B-0213]: the IC50 in assay [1] (setting [3]) turned out to be 310 nM. Also, the inhibition at 1 µM in assay [2] came out at 39%.
Regarding `O=C(NCc1[nH]nc(-c2ccc(F)cc2)c1-c1ccncc1)NC(=O)c1ccccc1` [Example B-0146], in assay [1] (@ 10.0 uM), the inhibition at 10 µM came to 77%. Further, the inhibition at 1 µM in assay [2] was found to be 28%.
Consider `C[C@@H](NC(=O)c1ccc(Cl)cc1)c1[nH]nc(-c2ccc(F)cc2)c1-c1ccncc1` [Example B-0493], for which, in assay [1] (setting [3]), the IC50 amounted to 300 nM. For the same compound, the inhibition at 1 µM in assay [2] came to 36%.
Take `CN(C)CCn1cc(-c2ccnc(NCc3ccc(F)cc3)c2)c(-c2ccc(F)cc2)n1` [Example A-274, 4-[1-[2-(dimethylamino)ethyl]-3-(4-fluorophenyl)-1H-pyrazol-4-yl]-N-[(4-fluorophenyl)methyl]-2-pyridinamine]: the IC50 was under 100 nM in assay [1] (setting [4]) and 920 nM in assay [2] (setting [5]).
As for `C[C@@H](NC(=O)N1CCCC1)c1[nH]nc(-c2ccc(F)cc2)c1-c1ccncc1` [Example B-0404], in assay [1] (setting [3]), the IC50 is 310 nM. The inhibition at 1 µM in assay [2] stood at 48%.
With `C[C@@H](NC(=O)c1cc(Cl)cc(Cl)c1)c1[nH]nc(-c2ccc(F)cc2)c1-c1ccncc1` [Example B-0498], the IC50 in assay [1] (setting [3]) came out at 330 nM. The inhibition at 1 µM in assay [2] was 11%.
Taken in the same sequence, the figures for `C[C@@H](NC(=O)c1cc(F)c(F)cc1F)c1[nH]nc(-c2ccc(F)cc2)c1-c1ccncc1` [Example B-0521] were 1370 nM and 52%.
Take `CC(=O)OC(C)(C)C(=O)NCc1[nH]nc(-c2ccc(F)cc2)c1-c1ccncc1` [Example B-0043]: the half-maximal inhibitory concentration (IC50) in assay [1] (setting [3]) was determined as 220 nM; in assay [2] (setting [6]) it was 540 nM.
As to `Cc1c(C)c(S(=O)(=O)NCc2[nH]nc(-c3ccc(F)cc3)c2-c2ccncc2)c(C)c2c1OC(C)(C)CC2` [Example B-0257], the IC50 in assay [1] (setting [3]) was determined as 1710 nM. In addition, the inhibition at 1 µM in assay [2] is 11%.
On to `COc1cc(C(=O)NCc2[nH]nc(-c3ccc(F)cc3)c2-c2ccncc2)cc(OC)c1OC` [Example B-0085], for which the inhibition at 1 µM was found to be 83% in assay [1] and 21% in assay [2].
As to `Cc1ccc(S(C)(=O)=O)cc1S(=O)(=O)NCc1[nH]nc(-c2ccc(F)cc2)c1-c1ccncc1` [Example B-0260], the IC50 in assay [1] (setting [3]) stood at 560 nM. The inhibition at 1 µM in assay [2] was 23%.
`C[C@@H](NS(C)(=O)=O)c1[nH]nc(-c2ccc(F)cc2)c1-c1ccncc1` [Example B-0396]: the figures for the IC50 in assay [1] (setting [3]) and in assay [2] (setting [6]) were 97 nM and 440 nM, respectively.
Regarding `O=S(=O)(NCc1[nH]nc(-c2ccc(F)cc2)c1-c1ccncc1)c1cccc(C(F)(F)F)c1` [Example B-0247], the IC50 in assay [1] (setting [3]) was found to be 82 nM. In addition, the inhibition at 1 µM in assay [2] worked out at 75%.
For `CCOC(=O)CCCC(=O)NCc1[nH]nc(-c2ccc(F)cc2)c1-c1ccncc1` [Example B-0096], the inhibition at 1 µM in assay [1] turned out to be 91%; in assay [2] it was 22%.
Consider `O=C(NCc1[nH]nc(-c2ccc(F)cc2)c1-c1ccncc1)N[C@@H]1C[C@@H]1c1ccccc1` [Example B-0153], for which the inhibition at 1 µM came out at 57% in assay [1] and 21% in assay [2].
Regarding `O=C(NCc1[nH]nc(-c2ccc(F)cc2)c1-c1ccncc1)c1c(F)cccc1C(F)(F)F` [Example B-0284], the IC50 in assay [1] (setting [3]) came to 83 nM. Moreover, the inhibition at 1 µM in assay [2] was 65%.
Consider `O=[N+]([O-])c1cc(S(=O)(=O)NCc2[nH]nc(-c3ccc(F)cc3)c2-c2ccncc2)ccc1Cl` [Example B-0102], for which the inhibition at 1 µM in assay [1] worked out at 81%; in assay [2] it was 15%.
Regarding `C[C@@H](NC(=O)c1ccccc1Cl)c1[nH]nc(-c2ccc(F)cc2)c1-c1ccncc1` [Example B-0514], the IC50 in assay [1] (setting [3]) came out at 140 nM. The inhibition at 1 µM in assay [2] came to 87%.
As for `Cc1cc(C)c(NC(=O)NCc2[nH]nc(-c3ccc(F)cc3)c2-c2ccncc2)c(C)c1` [Example B-0186], the inhibition at 1 µM in assay [1] was determined as 40%; in assay [2] it was 25%.
Turning to `C[C@@H](NC(=O)c1cc(F)ccc1F)c1[nH]nc(-c2ccc(F)cc2)c1-c1ccncc1` [Example B-0520], in assay [1] (setting [3]), the IC50 is 400 nM. In addition, the inhibition at 1 µM in assay [2] was 67%.
Consider `CC(C)(C)c1ccc(S(=O)(=O)NCc2[nH]nc(-c3ccc(F)cc3)c2-c2ccncc2)cc1` [Example B-0099], for which, in assay [1], the inhibition at 1 µM stood at 43%. Besides, the half-maximal inhibitory concentration (IC50) in assay [2] (setting [6]) was over 1000 nM.
Consider `Cc1ccc(S(=O)(=O)N[C@H](C)c2[nH]nc(-c3ccc(F)cc3)c2-c2ccncc2)cc1` [Example B-0399], for which, in assay [1] (setting [3]), the IC50 is 140 nM. Also, in assay [2], the inhibition at 1 µM came out at 39%.
As for `CC(=O)O[C@@H](C)C(=O)NCc1[nH]nc(-c2ccc(F)cc2)c1-c1ccncc1` [Example B-0083], the IC50 was 220 nM in assay [1] (setting [3]) and 6510 nM in assay [2] (setting [6]).
In the case of `CCCCCc1ccc(NC(=O)NCc2[nH]nc(-c3ccc(F)cc3)c2-c2ccncc2)cc1` [Example B-0156], the “P38 alpha kinase % inhib @ conc.” value in assay [1] (@ 10.0 uM) is given as 42.0% @ 10.0 uM. Also, the “U937 Cell % inhib @ conc.” value in assay [2] (@ 1.0 uM) is reported as 13.0% @ 1.0 uM.

What is called IC50 is the point on the concentration scale where inhibition reaches its midpoint.
